{"source": "ChEMBL document CHEMBL1201862", "about": "“PubChem BioAssay data set” (2004)", "key": {"[1]": {"molecular_target": "Ion channel NompC (Danio rerio, UniProt Q7T1G6)", "sequence (Q7T1G6 whole entry)": "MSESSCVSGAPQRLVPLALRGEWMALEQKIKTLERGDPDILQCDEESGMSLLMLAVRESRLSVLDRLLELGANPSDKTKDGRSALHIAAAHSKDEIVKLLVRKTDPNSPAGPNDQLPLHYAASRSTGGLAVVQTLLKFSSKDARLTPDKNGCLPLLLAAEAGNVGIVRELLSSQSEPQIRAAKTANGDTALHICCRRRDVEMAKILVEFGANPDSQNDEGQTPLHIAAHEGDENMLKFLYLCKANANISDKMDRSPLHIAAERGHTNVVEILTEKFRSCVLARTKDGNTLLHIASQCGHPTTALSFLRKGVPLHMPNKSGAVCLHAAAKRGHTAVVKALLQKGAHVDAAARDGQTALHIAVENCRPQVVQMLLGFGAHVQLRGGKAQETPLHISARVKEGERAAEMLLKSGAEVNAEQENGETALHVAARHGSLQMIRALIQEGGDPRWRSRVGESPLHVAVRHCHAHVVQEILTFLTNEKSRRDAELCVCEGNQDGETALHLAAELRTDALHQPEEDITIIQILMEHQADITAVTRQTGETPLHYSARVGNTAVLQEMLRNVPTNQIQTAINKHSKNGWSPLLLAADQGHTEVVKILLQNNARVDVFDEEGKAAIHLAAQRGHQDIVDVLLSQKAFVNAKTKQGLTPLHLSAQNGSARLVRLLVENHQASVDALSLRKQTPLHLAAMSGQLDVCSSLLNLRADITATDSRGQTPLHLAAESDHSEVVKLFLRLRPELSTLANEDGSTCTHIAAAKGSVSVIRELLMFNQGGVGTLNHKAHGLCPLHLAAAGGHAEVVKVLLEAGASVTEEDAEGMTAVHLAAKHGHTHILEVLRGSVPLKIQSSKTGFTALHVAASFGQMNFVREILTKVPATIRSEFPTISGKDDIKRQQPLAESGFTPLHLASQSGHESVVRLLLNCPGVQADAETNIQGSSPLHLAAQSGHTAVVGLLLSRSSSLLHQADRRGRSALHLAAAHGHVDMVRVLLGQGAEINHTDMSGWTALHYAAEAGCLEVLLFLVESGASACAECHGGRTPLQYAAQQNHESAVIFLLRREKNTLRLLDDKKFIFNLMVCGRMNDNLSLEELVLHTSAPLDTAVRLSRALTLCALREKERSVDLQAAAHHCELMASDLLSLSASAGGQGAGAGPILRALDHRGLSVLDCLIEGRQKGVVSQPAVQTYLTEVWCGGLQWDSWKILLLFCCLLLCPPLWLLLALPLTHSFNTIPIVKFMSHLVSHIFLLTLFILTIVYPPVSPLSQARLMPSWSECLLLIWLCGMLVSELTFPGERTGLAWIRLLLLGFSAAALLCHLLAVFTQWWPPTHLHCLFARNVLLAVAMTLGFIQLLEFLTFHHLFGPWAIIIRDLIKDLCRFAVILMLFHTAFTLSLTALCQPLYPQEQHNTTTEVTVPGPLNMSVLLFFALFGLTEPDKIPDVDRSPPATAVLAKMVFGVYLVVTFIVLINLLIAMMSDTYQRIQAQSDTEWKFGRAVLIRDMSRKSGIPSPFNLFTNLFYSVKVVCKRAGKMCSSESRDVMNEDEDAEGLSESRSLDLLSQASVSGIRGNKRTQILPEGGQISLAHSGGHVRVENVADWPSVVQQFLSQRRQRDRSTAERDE", "test": "Fluorescence counterscreen assay for TRPML3 agonists: dose response cell-based high-throughput screening assay to identify agonists of the transient receptor potential channel N1 (TRPN1). [Related pubchem assays: 1526, 1424, 1448 ]", "type": "functional"}, "[2]": {"molecular_target": "Mucolipin-3 (Homo sapiens, UniProt Q8TDD5)", "sequence (Q8TDD5 whole entry)": "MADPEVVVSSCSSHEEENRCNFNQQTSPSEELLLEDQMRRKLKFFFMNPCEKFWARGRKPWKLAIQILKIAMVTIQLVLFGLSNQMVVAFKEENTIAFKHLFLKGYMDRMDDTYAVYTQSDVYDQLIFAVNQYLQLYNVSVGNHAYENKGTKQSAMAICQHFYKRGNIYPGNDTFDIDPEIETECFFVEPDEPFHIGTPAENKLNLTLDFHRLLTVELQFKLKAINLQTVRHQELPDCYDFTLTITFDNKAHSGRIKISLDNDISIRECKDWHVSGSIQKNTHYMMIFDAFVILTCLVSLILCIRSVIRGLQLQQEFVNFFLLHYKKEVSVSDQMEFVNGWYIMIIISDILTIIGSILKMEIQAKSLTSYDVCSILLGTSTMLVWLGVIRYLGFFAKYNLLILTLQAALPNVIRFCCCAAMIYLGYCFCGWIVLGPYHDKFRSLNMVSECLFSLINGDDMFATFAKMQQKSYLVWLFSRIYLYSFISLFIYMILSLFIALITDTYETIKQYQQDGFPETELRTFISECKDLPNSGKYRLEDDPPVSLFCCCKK", "test": "Dose response cell-based high-throughput screening assay for agonists of the transient receptor potential channel ML3 (TRPML3). [Related pubchem assays: 1526, 1424, 1448 ]", "type": "functional"}, "[3]": {"test": "NIH3T3 cell viability loss – ATP luminescence, mouse fibroblasts, counter-screen, dose response (AID 2010);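 also: cells exposed to compound for about 90 hours before reading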", "type": "functional, cell-based"}, "[4]": {"molecular_target": "T1, Microphthalmia-associated transcription factor (Homo sapiens, UniProt O75030)", "T1 sequence (O75030 whole entry)": "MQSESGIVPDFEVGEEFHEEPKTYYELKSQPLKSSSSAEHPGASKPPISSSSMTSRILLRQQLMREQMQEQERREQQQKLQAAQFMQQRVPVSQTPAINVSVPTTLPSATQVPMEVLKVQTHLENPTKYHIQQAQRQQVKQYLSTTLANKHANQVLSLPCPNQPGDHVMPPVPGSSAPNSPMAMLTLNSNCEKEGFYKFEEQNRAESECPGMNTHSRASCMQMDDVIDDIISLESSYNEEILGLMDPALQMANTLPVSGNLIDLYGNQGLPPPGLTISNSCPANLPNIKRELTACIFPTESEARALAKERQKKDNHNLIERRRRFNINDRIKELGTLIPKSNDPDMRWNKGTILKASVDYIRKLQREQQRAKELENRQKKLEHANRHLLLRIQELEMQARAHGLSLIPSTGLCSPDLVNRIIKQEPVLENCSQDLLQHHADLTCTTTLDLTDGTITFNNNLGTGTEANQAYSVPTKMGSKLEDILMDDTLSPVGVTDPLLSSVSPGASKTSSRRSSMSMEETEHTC", "test": "reducers of TRPM1 reporter luminescence, concentration series – cell-based, SK-MEL-5, cherry-picked, set 3, MITF inhibitor project, dose response (AID 493073);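 also: SK-MEL-5 melanoma cells with luciferase driven by the MITF target TRPM1 promoter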", "type": "functional"}, "[5]": {"molecular_target": "T2, Carboxy-terminal domain RNA polymerase II polypeptide A small phosphatase 1 (Homo sapiens, UniProt Q9GZU7)", "T2 sequence (Q9GZU7 whole entry)": "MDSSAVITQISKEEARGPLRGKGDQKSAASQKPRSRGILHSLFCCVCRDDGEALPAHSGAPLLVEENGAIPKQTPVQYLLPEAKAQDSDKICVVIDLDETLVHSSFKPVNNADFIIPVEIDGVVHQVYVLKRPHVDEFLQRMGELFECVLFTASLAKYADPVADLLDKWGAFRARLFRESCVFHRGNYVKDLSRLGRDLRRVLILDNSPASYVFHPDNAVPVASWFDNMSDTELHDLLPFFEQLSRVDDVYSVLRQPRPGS", "test": "CTDSP1 inhibitors, concentration-response, biochemical, absorbance readout, ultra-high-throughput screen actives (AID 540297)", "type": "functional"}, "[6]": {"molecular_target": "Bcl-2-like protein 1 (Homo sapiens, UniProt Q07817)", "sequence (Q07817 whole entry)": "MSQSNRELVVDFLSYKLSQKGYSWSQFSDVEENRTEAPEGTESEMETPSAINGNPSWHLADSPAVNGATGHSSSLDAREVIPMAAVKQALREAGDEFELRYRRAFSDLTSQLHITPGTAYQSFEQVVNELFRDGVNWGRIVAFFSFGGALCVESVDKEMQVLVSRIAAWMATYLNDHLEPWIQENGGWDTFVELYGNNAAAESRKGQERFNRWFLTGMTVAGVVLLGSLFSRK", "test": "blockers of BCLXL peptide binding – biochemical, fluorescence polarization, 1536-well, selectivity assay for MCL1 inhibitor project, dose response (AID 2218)"}, "[7]": {"test": "NIH-3T3 fibroblast cytotoxicity, dose response, cytotoxicity control, cell-based, fluorescence, Alamar Blue, secondary assay (AID 2327);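 also: NIH-3T3 mouse fibroblasts cultured with fluconazole at 8 µg/mL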", "type": "functional"}, "[8]": {"test": "Trypanosoma cruzi growth suppression in host cells – NIH3T3 host cells, beta-gal luminescence, confirmation (AID 2044);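 also: intracellular parasites grown in NIH/3T3 mouse fibroblasts as host cells; luminescent beta-galactosidase reporter signal from transgenic T. cruzi replicating inside host cells; inhibitors lower the luminescence signal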", "type": "functional, cell-based"}, "[9]": {"molecular_target": "Induced myeloid leukemia cell differentiation protein Mcl-1 (Homo sapiens, UniProt Q07820)", "sequence (Q07820 whole entry)": "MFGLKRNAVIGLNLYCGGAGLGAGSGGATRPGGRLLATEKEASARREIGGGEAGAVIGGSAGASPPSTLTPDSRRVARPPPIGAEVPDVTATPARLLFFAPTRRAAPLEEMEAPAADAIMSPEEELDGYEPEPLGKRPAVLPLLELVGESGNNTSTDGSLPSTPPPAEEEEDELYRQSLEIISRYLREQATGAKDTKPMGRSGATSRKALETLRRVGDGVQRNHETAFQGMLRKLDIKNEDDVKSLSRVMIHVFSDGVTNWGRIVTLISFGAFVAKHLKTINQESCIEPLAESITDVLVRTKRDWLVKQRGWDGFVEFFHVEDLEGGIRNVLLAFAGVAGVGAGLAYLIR", "test": "blockers of MCL1 binding to BIM peptide – biochemical, fluorescence polarization, BIM-BH3 peptide, 1536-well, dose response (AID 2217)"}, "[10]": {"molecular_target": "Estrogen receptor beta (Homo sapiens, UniProt Q92731)", "sequence (Q92731 whole entry)": "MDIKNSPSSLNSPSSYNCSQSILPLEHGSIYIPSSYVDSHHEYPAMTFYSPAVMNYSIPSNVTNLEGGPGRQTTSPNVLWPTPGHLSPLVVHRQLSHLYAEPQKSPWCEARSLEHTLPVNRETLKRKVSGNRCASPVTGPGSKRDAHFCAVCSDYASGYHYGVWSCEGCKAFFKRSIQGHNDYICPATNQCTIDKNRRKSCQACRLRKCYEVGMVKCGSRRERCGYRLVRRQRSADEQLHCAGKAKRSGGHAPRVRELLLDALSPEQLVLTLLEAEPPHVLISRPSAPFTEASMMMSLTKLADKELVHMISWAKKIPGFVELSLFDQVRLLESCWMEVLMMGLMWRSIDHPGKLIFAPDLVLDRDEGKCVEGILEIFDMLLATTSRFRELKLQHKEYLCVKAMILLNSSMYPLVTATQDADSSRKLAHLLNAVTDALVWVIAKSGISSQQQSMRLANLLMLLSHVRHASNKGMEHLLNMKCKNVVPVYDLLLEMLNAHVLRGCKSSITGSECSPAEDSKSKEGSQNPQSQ", "test": "blockers of SRC-3 recruitment to ERβ – biochemical, ELISA, streptavidin-HRP readout, orthogonal assay, confirmation (AID 1060)"}, "[11]": {"molecular_target": "Bcl-2-like protein 10 (Homo sapiens, UniProt Q9HD36)", "sequence (Q9HD36 whole entry)": "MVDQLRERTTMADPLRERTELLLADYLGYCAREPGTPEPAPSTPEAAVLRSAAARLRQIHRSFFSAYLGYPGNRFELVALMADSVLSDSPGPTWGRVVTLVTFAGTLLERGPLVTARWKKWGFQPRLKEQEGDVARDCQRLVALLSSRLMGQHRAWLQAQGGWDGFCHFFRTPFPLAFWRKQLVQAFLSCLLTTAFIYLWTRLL", "test": "Bcl-B/TR3 peptide binding disruption – biochemical, fluorescence polarization, FITC-TR3 peptide, selectivity assay for Bfl-1 inhibitor project, primary screen (AID 748);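 also: fluorescence polarization from a fluorescein-labelled TR3 peptide binding purified Bcl-B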"}, "[12]": {"test": "A Cell Based Secondary Assay To Explore Cytotoxicity of Compounds that Sensitize Mycobacterium Tuberculosis to Beta-Lactam Antibiotics.", "type": "functional"}}, "note": "Active and inactive are the calls of the source.", "data": [{"smiles": "Cc1onc(-c2ccc(Cl)cc2)c1-c1ccnn1S(=O)(=O)c1cccc(C(F)(F)F)c1", "values": [{"measurement": "EC50", "setting": "[1]", "result": "> 29.9 µM (not active)"}, {"measurement": "EC50", "setting": "[2]", "result": "4.26 µM (active)"}]}, {"smiles": "Cc1nc2ccccn2c1C(=O)N/N=C/c1ccc([N+](=O)[O-])o1", "values": [{"measurement": "EC50", "setting": "[3]", "result": "10.9 µM (active)"}, {"measurement": "AC50", "setting": "[4]", "result": "8.03 µM (active)"}, {"measurement": "IC50", "setting": "[5]", "result": "5.79 µM (active)"}, {"measurement": "IC50", "setting": "[6]", "result": "55.2 µM (not active)"}, {"measurement": "EC50", "setting": "[7]", "result": "> 160 µM (inactive)"}, {"measurement": "EC50", "setting": "[8]", "result": "0.139 µM (active)"}, {"measurement": "IC50", "setting": "[9]", "result": "13.2 µM (not active)"}]}, {"smiles": "O=C(c1cnccn1)N1CCc2ccccc21", "values": [{"measurement": "IC50", "setting": "[10]", "result": "< 0.023 µM (not active)"}, {"measurement": "IC50", "setting": "[11]", "result": "23.7 µM (active)"}]}, {"smiles": "O=C(COc1ccccc1)Nc1cccc(-c2nnc(-c3ccccc3)o2)c1", "values": [{"measurement": "CC50", "setting": "[12]", "result": "> 40 µM (active)"}]}]}
